Laboratory results reported in the kinase profiling compilation of Christmann-Franck et al. (2016).

Assays:
Assay in all cases: KINOMEscan competition binding
Details in all cases: compound 10.0 µM
SYK (human) = SYK (human) (UniProt P43405)
PLK3 (human) = PLK3 (human) (UniProt Q9H4B4)
EPHA1 (human) = EPHA1 (human) (UniProt P21709)
MAP3K11 (human) = MAP3K11 (human) (UniProt Q16584)
MYLK (human) = MYLK (human) (UniProt Q15746)
CHEK1 (human) = CHEK1 (human) (UniProt O14757)
PAK2 (human) = PAK2 (human) (UniProt Q13177)
PIK3C2B (human) = PIK3C2B (human) (UniProt O00750)
MUSK (human) = MUSK (human) (UniProt O15146)
HCK (human) = HCK (human) (UniProt P08631)
CDK19 (human) = CDK19 (human) (UniProt Q9BWU1)
EPHA7 (human) = EPHA7 (human) (UniProt Q15375)
SRPK2 (human) = SRPK2 (human) (UniProt P78362)
CDK5 (human) = CDK5 (human) (UniProt Q00535)
FLT4 (human) = FLT4 (human) (UniProt P35916)
FLT1 (human) = FLT1 (human) (UniProt P17948)
MYO3A (human) = MYO3A (human) (UniProt Q8NEV4)
LTK (human) = LTK (human) (UniProt P29376)
[1] = system: KIT (human), P10721 [A829P]
CLK4 (human) = CLK4 (human) (UniProt Q9HAZ1)
RIPK1 (human) = RIPK1 (human) (UniProt Q13546)
CDK17 (human) = CDK17 (human) (UniProt Q00537)
RET (human) = RET (human) (UniProt P07949)
RPS6KA1 KD2 (human) = RPS6KA1 KD2 (human) (UniProt Q15418)
PKMYT1 (human) = PKMYT1 (human) (UniProt Q99640)
STK24 (human) = STK24 (human) (UniProt Q9Y6E0)
TSSK1B (human) = TSSK1B (human) (UniProt Q9BXA7)
TBK1 (human) = TBK1 (human) (UniProt Q9UHD2)
CRK2 (P.falciparum) = CRK2 (P.falciparum) (UniProt P61075)
MAP3K15 (human) = MAP3K15 (human) (UniProt Q6ZN16)
CDK13 (human) = CDK13 (human) (UniProt Q14004)
HIPK2 (human) = HIPK2 (human) (UniProt Q9H2X6)
GRK4 (human) = GRK4 (human) (UniProt P32298)
CaMK1 (human) = CaMK1 (human) (UniProt Q14012)
HIPK1 (human) = HIPK1 (human) (UniProt Q86Z02)
TGFBR2 (human) = TGFBR2 (human) (UniProt P37173)
STK35 (human) = STK35 (human) (UniProt Q8TDR2)
SIK3 (human) = SIK3 (human) (UniProt Q9Y2K2)
AURKA (human) = AURKA (human) (UniProt O14965)
CDKL3 (human) = CDKL3 (human) (UniProt Q8IVW4)
Sequence of CDKL3 (human) (Q8IVW4 whole entry, looked up): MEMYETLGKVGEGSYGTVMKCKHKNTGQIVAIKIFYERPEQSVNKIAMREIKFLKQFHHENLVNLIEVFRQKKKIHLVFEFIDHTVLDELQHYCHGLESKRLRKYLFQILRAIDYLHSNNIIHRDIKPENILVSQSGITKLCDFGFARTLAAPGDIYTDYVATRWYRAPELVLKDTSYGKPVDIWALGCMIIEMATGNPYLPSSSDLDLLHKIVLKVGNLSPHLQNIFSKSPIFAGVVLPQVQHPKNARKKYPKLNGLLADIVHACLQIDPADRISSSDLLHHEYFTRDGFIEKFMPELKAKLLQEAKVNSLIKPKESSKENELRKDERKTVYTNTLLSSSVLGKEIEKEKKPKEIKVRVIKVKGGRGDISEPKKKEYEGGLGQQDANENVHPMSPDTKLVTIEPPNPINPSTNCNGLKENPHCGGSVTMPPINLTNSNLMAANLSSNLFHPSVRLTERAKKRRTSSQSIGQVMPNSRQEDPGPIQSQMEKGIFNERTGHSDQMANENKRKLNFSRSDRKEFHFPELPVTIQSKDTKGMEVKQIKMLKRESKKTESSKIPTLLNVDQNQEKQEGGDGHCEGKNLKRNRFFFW

Sequence of CHEK1 (human) (O14757 whole entry, looked up): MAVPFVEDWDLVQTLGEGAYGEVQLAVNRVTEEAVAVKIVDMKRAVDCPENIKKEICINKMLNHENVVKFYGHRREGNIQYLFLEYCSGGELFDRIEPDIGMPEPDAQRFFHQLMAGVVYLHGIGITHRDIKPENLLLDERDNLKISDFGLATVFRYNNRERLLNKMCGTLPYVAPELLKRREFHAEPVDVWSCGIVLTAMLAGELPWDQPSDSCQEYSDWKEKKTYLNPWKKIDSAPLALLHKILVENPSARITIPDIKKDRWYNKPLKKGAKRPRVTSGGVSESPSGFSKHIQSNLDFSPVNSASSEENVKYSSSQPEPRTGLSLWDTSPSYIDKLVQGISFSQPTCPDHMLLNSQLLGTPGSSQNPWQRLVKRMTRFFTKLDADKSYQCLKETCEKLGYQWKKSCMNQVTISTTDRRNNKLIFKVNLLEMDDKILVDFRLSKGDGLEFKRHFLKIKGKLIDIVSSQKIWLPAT
Sequence of GRK4 (human) (P32298 whole entry, looked up): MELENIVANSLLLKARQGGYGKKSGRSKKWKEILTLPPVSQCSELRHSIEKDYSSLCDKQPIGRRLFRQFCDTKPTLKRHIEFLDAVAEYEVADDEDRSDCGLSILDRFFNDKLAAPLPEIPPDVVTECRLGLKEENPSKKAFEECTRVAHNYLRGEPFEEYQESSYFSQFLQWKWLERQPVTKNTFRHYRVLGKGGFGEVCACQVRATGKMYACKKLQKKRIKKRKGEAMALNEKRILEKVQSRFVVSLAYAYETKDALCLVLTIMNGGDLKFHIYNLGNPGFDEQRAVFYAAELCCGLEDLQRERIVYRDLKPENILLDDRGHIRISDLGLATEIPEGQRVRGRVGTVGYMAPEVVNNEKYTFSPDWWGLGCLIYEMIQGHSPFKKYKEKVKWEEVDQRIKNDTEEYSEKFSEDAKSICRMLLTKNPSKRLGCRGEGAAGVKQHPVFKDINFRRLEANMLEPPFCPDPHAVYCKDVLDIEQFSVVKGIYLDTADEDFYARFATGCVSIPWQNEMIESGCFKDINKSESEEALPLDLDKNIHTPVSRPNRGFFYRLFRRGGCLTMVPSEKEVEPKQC
Sequence of CDK17 (human) (Q00537 whole entry, looked up): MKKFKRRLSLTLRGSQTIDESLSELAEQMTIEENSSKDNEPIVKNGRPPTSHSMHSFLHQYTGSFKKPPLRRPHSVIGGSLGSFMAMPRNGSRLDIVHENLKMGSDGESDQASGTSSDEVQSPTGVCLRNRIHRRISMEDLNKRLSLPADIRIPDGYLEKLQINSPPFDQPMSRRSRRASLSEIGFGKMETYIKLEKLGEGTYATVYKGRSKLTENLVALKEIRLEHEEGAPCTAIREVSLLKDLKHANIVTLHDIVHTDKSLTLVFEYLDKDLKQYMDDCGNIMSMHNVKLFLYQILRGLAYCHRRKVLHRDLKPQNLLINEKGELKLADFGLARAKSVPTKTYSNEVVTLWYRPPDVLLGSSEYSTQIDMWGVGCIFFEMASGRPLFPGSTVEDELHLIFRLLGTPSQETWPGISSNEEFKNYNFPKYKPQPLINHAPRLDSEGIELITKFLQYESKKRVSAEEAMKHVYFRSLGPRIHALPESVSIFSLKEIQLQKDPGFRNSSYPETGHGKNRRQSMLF
Sequence of SRPK2 (human) (P78362 whole entry, looked up): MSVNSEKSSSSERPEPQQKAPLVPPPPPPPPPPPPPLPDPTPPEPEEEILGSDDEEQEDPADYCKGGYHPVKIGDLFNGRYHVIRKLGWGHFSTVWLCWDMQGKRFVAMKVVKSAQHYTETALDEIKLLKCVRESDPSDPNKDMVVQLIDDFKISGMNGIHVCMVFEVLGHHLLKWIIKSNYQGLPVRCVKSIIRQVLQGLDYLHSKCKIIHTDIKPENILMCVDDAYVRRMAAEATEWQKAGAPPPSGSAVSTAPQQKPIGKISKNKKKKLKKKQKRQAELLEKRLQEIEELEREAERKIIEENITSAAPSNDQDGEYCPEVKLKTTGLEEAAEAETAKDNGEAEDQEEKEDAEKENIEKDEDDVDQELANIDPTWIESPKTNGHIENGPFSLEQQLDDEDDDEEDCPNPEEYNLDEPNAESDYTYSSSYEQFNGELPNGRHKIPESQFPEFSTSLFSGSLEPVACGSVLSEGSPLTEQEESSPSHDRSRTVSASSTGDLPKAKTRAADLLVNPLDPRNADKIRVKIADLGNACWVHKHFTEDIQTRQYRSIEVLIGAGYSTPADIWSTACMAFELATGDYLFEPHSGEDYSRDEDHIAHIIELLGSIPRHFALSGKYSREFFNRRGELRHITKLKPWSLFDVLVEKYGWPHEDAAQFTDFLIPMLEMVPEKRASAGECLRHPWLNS
Sequence of CDK5 (human) (Q00535 whole entry, looked up): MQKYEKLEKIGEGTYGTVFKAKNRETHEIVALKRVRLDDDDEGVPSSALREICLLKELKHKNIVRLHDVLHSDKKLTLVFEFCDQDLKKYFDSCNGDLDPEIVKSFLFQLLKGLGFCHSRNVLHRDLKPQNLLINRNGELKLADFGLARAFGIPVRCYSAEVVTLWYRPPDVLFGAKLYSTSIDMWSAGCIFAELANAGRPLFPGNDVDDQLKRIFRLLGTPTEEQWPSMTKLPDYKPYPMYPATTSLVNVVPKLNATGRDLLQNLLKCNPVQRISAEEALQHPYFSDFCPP
Sequence of RIPK1 (human) (Q13546 whole entry, looked up): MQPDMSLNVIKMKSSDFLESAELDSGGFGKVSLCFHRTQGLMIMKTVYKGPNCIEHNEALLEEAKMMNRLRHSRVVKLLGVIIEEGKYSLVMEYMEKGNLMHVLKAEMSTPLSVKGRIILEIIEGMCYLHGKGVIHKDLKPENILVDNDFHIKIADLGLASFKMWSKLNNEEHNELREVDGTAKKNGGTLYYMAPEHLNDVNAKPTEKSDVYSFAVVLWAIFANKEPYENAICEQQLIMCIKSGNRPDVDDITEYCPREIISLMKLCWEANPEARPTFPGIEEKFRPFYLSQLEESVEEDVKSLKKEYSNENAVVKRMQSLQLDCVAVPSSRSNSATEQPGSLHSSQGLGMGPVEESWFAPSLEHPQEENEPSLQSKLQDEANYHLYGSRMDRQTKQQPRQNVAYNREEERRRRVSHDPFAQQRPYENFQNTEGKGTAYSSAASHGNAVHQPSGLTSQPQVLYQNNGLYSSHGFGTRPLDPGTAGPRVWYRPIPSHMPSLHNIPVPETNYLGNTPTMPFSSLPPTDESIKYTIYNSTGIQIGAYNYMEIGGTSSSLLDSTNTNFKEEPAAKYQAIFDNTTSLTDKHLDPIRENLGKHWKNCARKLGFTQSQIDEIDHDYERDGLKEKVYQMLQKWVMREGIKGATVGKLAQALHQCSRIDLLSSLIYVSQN
Sequence of KIT (human), P10721 [A829P] (P10721 whole entry A829P, looked up): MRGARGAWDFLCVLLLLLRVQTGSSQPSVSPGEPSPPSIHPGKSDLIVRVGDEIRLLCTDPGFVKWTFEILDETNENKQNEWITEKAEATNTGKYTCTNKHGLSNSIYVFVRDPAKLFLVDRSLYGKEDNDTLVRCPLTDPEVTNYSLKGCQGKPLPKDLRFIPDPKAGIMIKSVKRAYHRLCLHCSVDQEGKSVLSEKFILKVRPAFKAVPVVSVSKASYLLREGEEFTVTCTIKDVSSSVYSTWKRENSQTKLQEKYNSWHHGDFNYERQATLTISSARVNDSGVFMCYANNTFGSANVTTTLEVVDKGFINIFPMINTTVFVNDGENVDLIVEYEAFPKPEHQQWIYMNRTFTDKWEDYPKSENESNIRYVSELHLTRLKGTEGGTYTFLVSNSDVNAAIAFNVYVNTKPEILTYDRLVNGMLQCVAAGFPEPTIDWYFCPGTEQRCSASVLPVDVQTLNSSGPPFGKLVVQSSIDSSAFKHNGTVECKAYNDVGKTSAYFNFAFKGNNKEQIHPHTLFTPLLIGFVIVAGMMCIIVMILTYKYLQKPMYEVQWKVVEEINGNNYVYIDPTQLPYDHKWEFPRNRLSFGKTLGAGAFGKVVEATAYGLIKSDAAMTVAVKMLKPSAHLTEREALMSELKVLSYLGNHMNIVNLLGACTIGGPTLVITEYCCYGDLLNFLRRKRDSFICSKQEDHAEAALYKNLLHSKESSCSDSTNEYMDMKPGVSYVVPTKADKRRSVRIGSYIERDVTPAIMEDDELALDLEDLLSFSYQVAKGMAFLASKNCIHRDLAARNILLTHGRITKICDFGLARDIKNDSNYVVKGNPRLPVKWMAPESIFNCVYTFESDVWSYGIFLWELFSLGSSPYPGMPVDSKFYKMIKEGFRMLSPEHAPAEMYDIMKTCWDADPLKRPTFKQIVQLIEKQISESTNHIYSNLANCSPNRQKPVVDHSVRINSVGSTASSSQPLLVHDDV

Row | SMILES | kinase still bound, per cent of control (SYK (human)) [%] | kinase still bound, per cent of control (PLK3 (human)) [%] | kinase still bound, per cent of control (EPHA1 (human)) [%] | kinase still bound, per cent of control (MAP3K11 (human)) [%] | kinase still bound, per cent of control (MYLK (human)) [%] | kinase still bound, per cent of control (CHEK1 (human)) [%] | kinase still bound, per cent of control (PAK2 (human)) [%] | kinase still bound, per cent of control (PIK3C2B (human)) [%] | kinase still bound, per cent of control (MUSK (human)) [%] | kinase still bound, per cent of control (HCK (human)) [%] | kinase still bound, per cent of control (CDK19 (human)) [%] | kinase still bound, per cent of control (EPHA7 (human)) [%] | kinase still bound, per cent of control (SRPK2 (human)) [%] | kinase still bound, per cent of control (CDK5 (human)) [%] | kinase still bound, per cent of control (FLT4 (human)) [%] | kinase still bound, per cent of control (FLT1 (human)) [%] | kinase still bound, per cent of control (MYO3A (human)) [%] | kinase still bound, per cent of control (LTK (human)) [%] | kinase still bound, per cent of control [1] [%] | kinase still bound, per cent of control (CLK4 (human)) [%] | also measured
1 | COc1cc2ncnc(Nc3cccc(Cl)c3)c2cc1OC | 54 | 85 | 43 | 100 | 18 | 100 | 53 | 7.6 | 100 | 6.8 | 93 | 46 | 62 | 100 | 79 | 75 | 83 | 48 | 27 | 37 | kinase still bound, per cent of control (RIPK1 (human)): 100%; kinase still bound, per cent of control (CDK17 (human)): 79%; kinase still bound, per cent of control (RET (human)): 7%; kinase still bound, per cent of control (RPS6KA1 KD2 (human)): 28%; kinase still bound, per cent of control (PKMYT1 (human)): 78%; kinase still bound, per cent of control (STK24 (human)): 87%; kinase still bound, per cent of control (TSSK1B (human)): 100%; kinase still bound, per cent of control (TBK1 (human)): 45%; kinase still bound, per cent of control (CRK2 (P.falciparum)): 100%; kinase still bound, per cent of control (MAP3K15 (human)): 34%; kinase still bound, per cent of control (CDK13 (human)): 91%; kinase still bound, per cent of control (HIPK2 (human)): 80%; kinase still bound, per cent of control (GRK4 (human)): 100%; kinase still bound, per cent of control (CaMK1 (human)): 81%; kinase still bound, per cent of control (HIPK1 (human)): 48%; kinase still bound, per cent of control (TGFBR2 (human)): 91%; kinase still bound, per cent of control (STK35 (human)): 58%; kinase still bound, per cent of control (SIK3 (human)): 53%; kinase still bound, per cent of control (AURKA (human)): 43%; kinase still bound, per cent of control (CDKL3 (human)): 76%
2 | N#Cc1cc(-c2ccnc(Nc3ccc(-n4cnc(-c5cccnc5)n4)cc3)n2)cc(N2CCOCC2)c1 | 25 | 93 | 42 | 46 | 100 | 100 | 72 | 76 | 92 | 100 | 88 | 85 | 34 | 79 | 84 | 48 | 69 | 77 | 51 | 7.2 | kinase still bound, per cent of control (RIPK1 (human)): 7.8%; kinase still bound, per cent of control (CDK17 (human)): 18%; kinase still bound, per cent of control (RET (human)): 100%; kinase still bound, per cent of control (RPS6KA1 KD2 (human)): 77%; kinase still bound, per cent of control (PKMYT1 (human)): 65%; kinase still bound, per cent of control (STK24 (human)): 70%; kinase still bound, per cent of control (TSSK1B (human)): 100%; kinase still bound, per cent of control (TBK1 (human)): 35%; kinase still bound, per cent of control (CRK2 (P.falciparum)): 100%; kinase still bound, per cent of control (MAP3K15 (human)): 66%; kinase still bound, per cent of control (CDK13 (human)): 100%; kinase still bound, per cent of control (HIPK2 (human)): 6.2%; kinase still bound, per cent of control (GRK4 (human)): 37%; kinase still bound, per cent of control (CaMK1 (human)): 83%; kinase still bound, per cent of control (HIPK1 (human)): 2.2%; kinase still bound, per cent of control (TGFBR2 (human)): 100%; kinase still bound, per cent of control (STK35 (human)): 48%; kinase still bound, per cent of control (SIK3 (human)): 100%; kinase still bound, per cent of control (AURKA (human)): 93%; kinase still bound, per cent of control (CDKL3 (human)): 45%
3 | O=c1[nH]c2ccccc2n1C1CCN(Cc2ccc(-c3nc4cc5[nH]cnc5cc4nc3-c3ccccc3)cc2)CC1 | 84 | 94 | 100 | 100 | 57 | 100 | 74 | 54 | 100 | 90 | 75 | 100 | 85 | 100 | 100 | 89 | 100 | 56 | 100 | 95 | kinase still bound, per cent of control (RIPK1 (human)): 100%; kinase still bound, per cent of control (CDK17 (human)): 100%; kinase still bound, per cent of control (RET (human)): 76%; kinase still bound, per cent of control (RPS6KA1 KD2 (human)): 100%; kinase still bound, per cent of control (PKMYT1 (human)): 94%; kinase still bound, per cent of control (STK24 (human)): 100%; kinase still bound, per cent of control (TSSK1B (human)): 82%; kinase still bound, per cent of control (TBK1 (human)): 70%; kinase still bound, per cent of control (CRK2 (P.falciparum)): 100%; kinase still bound, per cent of control (MAP3K15 (human)): 100%; kinase still bound, per cent of control (CDK13 (human)): 98%; kinase still bound, per cent of control (HIPK2 (human)): 88%; kinase still bound, per cent of control (GRK4 (human)): 100%; kinase still bound, per cent of control (CaMK1 (human)): 87%; kinase still bound, per cent of control (HIPK1 (human)): 69%; kinase still bound, per cent of control (TGFBR2 (human)): 100%; kinase still bound, per cent of control (STK35 (human)): 100%; kinase still bound, per cent of control (SIK3 (human)): 88%; kinase still bound, per cent of control (AURKA (human)): 68%; kinase still bound, per cent of control (CDKL3 (human)): 100%
